Results: patent US20220186188A1, “Method for Obtaining Pancreatic Progenitor Cells and Pancreatic Islet Beta Cells By Means of Differentiation of Human Pluripotent Stem Cells” (Asia Regenerative Medicine, Ltd., priority 2019, published 2022)

Key:
Assay type in all cases: cell-based
[1] = system: pancreatic progenitor cells and pancreatic islet β cells differentiated from human embryonic stem cells; experiment: Real-time fluorescence quantitative PCR of PDX1, NKX6-1 and INS mRNA (human embryonic stem cells); conditions: qPCR
Experimental: (§1) a pancreatic progenitor cell medium was prepared, the medium in step 1) was replaced with the pancreatic progenitor cell medium, and the cells were cultured in a carbon dioxide incubator at 37 degrees Celsius for 5 days, during which the medium was replaced every day, wherein the composition of the pancreatic progenitor cell medium was: with an MCDB131 medium as a basic medium, and the following components at the working concentrations were further included: 0.5% of bovine serum albumin (BSA), 1.5 g/L of sodium bicarbonate, 1×glutamine (GlutaMAX), 10 mM glucose, 0.25 M vitamin C, 1×insulin-transferrin-selenium-ethanolamine additive (ITS-X), 50 ng/ml of fibroblast growth factor 7 (KGF), 0.5 μM SANT1 (with smo as an inhibitor target), 100 nM retinoic acid (TTNPB), 500 nM phorbol 12,13-dibutyrate (PDBu), 2 μM ALK inhibitor (K02288), and 2 μM WNT signaling pathway inhibitor XAV-939 (not added in a control group), with the concentrations all being final concentrations.
(§2) b. pancreatic islet β cell medium 2 was prepared, the pancreatic islet β cell medium 1 in above-mentioned step a was replaced with the pancreatic islet β cell medium 2, and the cells were cultured in a carbon dioxide incubator at 37 degrees Celsius for 5 days, during which the medium was replaced every day, wherein the composition of the pancreatic islet β cell medium 1 was: with an MCDB131 medium as a basic medium, and the following components at the working concentrations were further included: 20 mM glucose, 2% of bovine serum albumin (BSA), 1.5 g/L of sodium bicarbonate, 1×glutamine (GlutaMAX), 0.05 mM vitamin C, 1×insulin-transferrin-selenium-ethanolamine additive (ITS-X), 2 μM ALK inhibitor (K02288), 1 μM triiodothyronine (T3), 10 μM YO-01027 (Notch signaling pathway inhibitor), and 10 μM zinc sulfate, with the concentrations all being final concentrations; and the composition of the pancreatic islet β cell medium 2 was: with an MCDB131 medium as a basic medium, and the following components at the working concentrations were further included: 20 mM glucose, 2% of bovine serum albumin (BSA), 1.5 g/L of sodium bicarbonate, 1×glutamine (GlutaMAX), 0.05 mM vitamin C, 1×insulin-transferrin-selenium-ethanolamine additive (ITS-X), 1 μM triiodothyronine (T3), 10 μM Repsox (ALK5 inhibitor), 10 μM vitamin E, 10 μg/ml of heparin sodium, 2 μM R428 (Axl inhibitor), 10 μM zinc sulfate, and 10 mM N-acetyl-L-cysteine (N-cys), with the concentrations all being final concentrations.
Cells cultured in a 24-well plate were collected, and washed twice with 500 μl of DPBS at first, then covered with 200 μl of chymotrypsin-trypsin (Trypsin), and placed at 37° C. for 5 minutes of digestion. Whether the cells float in pieces was observed, and the digestion was terminated using 500 μl of DMEM/F12 medium, then the product was centrifuged at 1000 rpm for 3 minutes, the supernatant was removed, and cell pellets were collected and added to a new RNase-free centrifuge tube. […]

[2] = system: pancreatic progenitor cells and pancreatic islet β cells differentiated from human embryonic stem cells; experiment: Immunofluorescence detection of PDX1 and PDX1/INS proteins (human embryonic stem cells)
Experimental: as §1, §2
Cells in a culture plate were washed three times with a phosphate buffered saline (PBS), 3 minutes each time; the cells were fixed with 4% paraformaldehyde at room temperature for 20 minutes, and washed three times with PBS, 3 minutes each time; a blocking solution was prepared in advance (by adding Triton at a final concentration of 0.3% to 9 ml of DPBS, adding donkey serum at a final concentration of 10%, and uniformly mixing); the above-prepared blocking solution was used for blocking and perforation at room temperature for 2 hours; the blocking solution was soaked up, a working concentration of primary antibody prepared with the blocking solution was then added, and the product was left to stand at room temperature for 30 minutes and then placed in a refrigerator at 4° C. overnight; the next day, the product was washed three times with PBS, 3 minutes each time; a fluorescent secondary antibody of donkey serum was added and incubation was carried out at room temperature for 2 hours; in the same way, the product was washed three times with PBS, 3 minutes each time; the product was incubated with a working solution of the nuclear dye DAPI at room temperature for 10 minutes, and washed three times with PBS, 3 minutes each time; then a fluorescence microscope was used for observation and data were collected. […]

[3] = system: pancreatic progenitor cells differentiated from human embryonic stem cells; experiment: Flow cytometry detection of PDX1 in the pancreatic progenitor cell stage (human embryonic stem cells); conditions: 2 μM inhibitor in pancreatic progenitor cell medium, 5 days, compared with control group without WNT inhibitor
Experimental: as §1, with “concentrations. […]” for “concentrations.”

[4] = 2 μM inhibitor in pancreatic progenitor cell stage, GAPDH reference
[5] = 2 μM inhibitor in pancreatic progenitor cell stage

## O=C(Nc1cccc2cccnc12)c1ccc(N2C(=O)[C@@H]3[C@H](C2=O)[C@@H]2C=C[C@H]3C2)cc1 [IWR-1]
[1]; 2 μM inhibitor added in pancreatic progenitor cell stage
  transcription level of the insulin gene INS in the mature pancreatic islet β cell stage: greatly increased
[1]; [4]
  relative expression of mRNA of NKX6-1 in pancreatic progenitor cells: significantly increased
  relative expression of mRNA of PDX1 in pancreatic progenitor cells: significantly increased
[2]; 2 μM inhibitor added in pancreatic progenitor cell stage, immunofluorescence
  number of insulin INS-positive and PDX1 co-stained pancreatic islet β cells in the mature pancreatic islet β cell stage: significantly increased
[2]; [5]
  PDX1-positive pancreatic progenitor cells (immunofluorescence): significantly increased
  cell growth (total cell number by DAPI): did not affect the cell growth
[3]
  PDX1-positive pancreatic progenitor cells (flow cytometry): significantly increased
